Measured values: patent US4606857A, “Muramyldipeptide derivatives” (priority 1982, dated 1986)

Columns and labels:
Assay type in all cases: in vivo
[1] = test system: delayed-type hypersensitivity to N-acetyltyrosine-3-azobenzene-4'-arsonic acid (ABA-N-Ac-Tyr); assay: Adjuvant activity: enhancement of induction of delayed-type hypersensitivity (skin reaction); details: guinea pig, 100 μg/animal compound with 50 μg ABA-N-Ac-Tyr in FIA into soles, 100 μg ABA-BSA intradermal two weeks later, mean ± SE; for Skin Reaction 24 Hours (diameter of erythema and induration): read 24 hours after injection; for Skin Reaction 48 Hours (diameter of erythema and induration): read 48 hours after injection
Protocol: The adjuvant activity was confirmed by the enhancing activity on the induction of delayed-type hypersensitivity to N-acetyltyrosine-3-azobenzene-4'-arsonic acid (hereinafter referred to as ABA-N-Ac-Tyr) in guinea pig.
That is, a water-in-oil emulsion prepared by mixing 50 μg/animal of ABA-N-Ac-Tyr and 100 μg/animal of each of the compounds of the present invention with Freund's incomplete adjuvant (hereinafter referred to as FIA) was administered to the soles of guinea pigs. Two weeks later, 100 μg of 3-azobenzene-4'-arsonic acid bonded to bovine serum albumin (hereinafter referred to as ABA-BSA) was intradermally injected and the diameter of skin reaction (i.e., erythema and induration) was measured 24 hours and 48 hours after the injection. The diameter of the skin reaction is considered a measure of cellular immunity.

[2] = test system: E. coli E77156; assay: Prophylactic effect against microbial infection in mice; details: STD-ddy male mice, 100 μg/mouse s.c. 24 hours before s.c. challenge
Protocol: (2) Prophylactic Effect Against Microbial Infection
Animals: Groups of 20 STD-ddy male mice, 5 weeks of age, were used.
Bacteria: E. coli E77156 which has been maintained in a freezed-culture was used.
Agents: Compounds of the present invention were dissolved or suspended in Dulbecco phosphate-buffered saline (PBS: pH 7.4) at a concentration of 500 μg/ml just before use.
Treatment and Infection: The animals were treated subcutaneously with 0.2 ml of each of the above solution or suspension (equivalent to 100 μg/mouse), followed by the subcutaneous challenge with E. coli 24 hours later.
The effect was judged from the percent survival of the mice seven days after the infection.

[3] = test system: Meth-A tumor cells; assay: Antitumor activity against Meth-A system; details: BALB/c mice; Meth-A 1.5×10^6 cells mixed with 100 μg compound in PBS, intradermal; 27th day after inoculation
Protocol: (3) Antitumor Activity Against Meth-A System
A mixture of tumor cells (Meth-A, 1.5×10^6) and 100 μg of Compound 20 of the present invention suspended in PBS was inoculated intradermally in BALB/c mice. […] The value is expressed in terms of the number of tumor-free mice/the number of mice tested.

[4] = inoculum 4.4 × 10^6 cells/mouse
[5] = inoculum 6.17 × 10^6 cells/mouse

SMILES | Skin Reaction 24 Hours (diameter of erythema and induration) [1] [mm] | Skin Reaction 48 Hours (diameter of erythema and induration) [1] [mm] | % Survival 7 days after Infection [2, 5] [%] | also measured
COC(=O)CC[C@@H](NC(=O)[C@H](C)NC(=O)[C@@H](C)O[C@H]1[C@H](O)[C@@H](CO)O[C@@H](SC(C)=O)[C@@H]1NC(C)=O)C(N)=O [Compound 2, 2-Acetamido-1-S-acetyl-2-deoxy-3-O-(D-2-propanoyl-L-alanyl-D-isoglutaminemethyl ester)-1-thio-β-D-glucopyranose] | 21.0 ± 1.0 | 21.0 ± 0.7 |  | 
CCCCCCCCCCCCCCCCSC1OC(CO)C(O)C(OC(C)C(=O)NC(C)C(=O)NC(CCC(=O)O)C(N)=O)C1NC(C)=O [Compound 11, 1-S-Hexadecanyl 2-acetamido-2-deoxy-3-O-(D-2-propanoyl-L-alanyl-D-isoglutamine)-1-thio-β-D-glucopyranoside] | 15.6 ± 1.9 | 11.6 ± 1.4 |  | 
CC(=O)NC1C(S)OC(CO)C(O)C1OC(C)C(=O)NC(C)C(=O)NC(CCC(=O)O)C(N)=O [Compound 4, 2-acetamido-2-deoxy-3-O-(D-2-propanoyl-L-alanyl-D-isoglutamine)-1-thio-β-D-glucopyranose] | 23.1 ± 1.2 | 21.0 ± 1.3 |  | % Survival 7 days after Infection [2, 4]: 55%
CCCCCCCCCCCCCC(=O)SC1OC(CO)C(O)C(OC(C)C(=O)NC(C)C(=O)NC(CCC(=O)O)C(N)=O)C1NC(C)=O [Compound 23, 2-Acetamido-2-deoxy-1-S-tetradecanoyl-3-O-(D-2-propanoyl-L-alanyl-D-isoglutamine)-1-thio-β-D-glucopyranose] |  |  | 60 | 
CCCCCCCCCC(=O)S[C@@H]1O[C@H](CO)[C@@H](O)[C@H](O[C@H](C)C(=O)N[C@@H](C)C(=O)N[C@H](CCC(=O)OC)C(N)=O)[C@H]1NC(C)=O [Compound 18, 2-Acetamido-2-deoxy-1-S-decanoyl-3-O-(D-2-propanoyl-L-alanyl-D-isoglutaminemethyl ester)-1-thio-β-D-glucopyranose] |  |  | 90 | 
CCCCCCCCCCCCCCCC(=O)S[C@@H]1O[C@H](CO)[C@@H](O)[C@H](O[C@H](C)C(=O)N[C@@H](C)C(=O)N[C@H](CCC(=O)OC)C(N)=O)[C@H]1NC(C)=O [Compound 14, 2-Acetamido-2-deoxy-1-S-hexadecanoyl-3-O-(D-2-propanoyl-L-alanyl-D-isoglutaminemethyl ester)-1-thio-β-D-glucopyranose] | 20.4 ± 0.7 | 21.0 ± 1.4 |  | % Survival 7 days after Infection [2, 4]: 80%
CCCCS[C@@H]1O[C@H](CO)[C@@H](O)[C@H](O[C@H](C)C(=O)N[C@@H](C)C(=O)N[C@H](CCC(=O)OC)C(N)=O)[C@H]1NC(C)=O [Compound 8, 1-S-n-Butyl 2-acetamido-2-deoxy-3-O-(D-2-propanoyl-L-alanyl-D-isoglutaminemethyl ester)-1-thio-β-D-glucopyranoside] | 14.5 ± 0.7 | 10.3 ± 1.0 |  | 
CC(=O)NC1C(S)OC2COC(C)(C)OC2C1OC(C)C(=O)NC(C)C(=O)NC(CCC(=O)O)C(N)=O [Compound 15, 2-Acetamido-2-deoxy-4,6-O-isopropylidene-3-O-(D-2-propanoyl-L-alanyl-D-isoglutamine)-1-thio-β-D-glucopyranose] | 16.9 ± 0.8 | 14.0 ± 1.0 |  | 
CCCCCCCCCCCCCCCCCCCC(=O)S[C@@H]1O[C@H](CO)[C@@H](O)[C@H](O[C@H](C)C(=O)N[C@@H](C)C(=O)N[C@H](CCC(=O)O)C(N)=O)[C@H]1NC(C)=O [Compound 25, 2-Acetamido-2-deoxy-1-S-eicosanoyl-3-O-(D-2-propanoyl-L-alanyl-D-isoglutamine)-1-thio-β-D-glucopyranose] |  |  |  | % Survival 7 days after Infection ([2]; inoculum 6.88 × 10^6 cells/mouse): 55%
CCCCCCCCCCCCCC(=O)S[C@@H]1O[C@H](CO)[C@@H](O)[C@H](O[C@H](C)C(=O)N[C@@H](C)C(=O)N[C@H](CCC(=O)OC)C(N)=O)[C@H]1NC(C)=O [Compound 24, 2-Acetamido-2-deoxy-1-S-tetradecanoyl-3-O-(D-2-propanoyl-L-alanyl-D-isoglutaminemethyl ester)-1-thio-β-D-glucopyranose] |  |  | 65 | 
COC(=O)CC[C@@H](NC(=O)[C@H](C)NC(=O)[C@@H](C)O[C@H]1[C@H](O)[C@@H](CO)O[C@@H](S)[C@@H]1NC(C)=O)C(N)=O [Compound 3, 2-Acetamido-2-deoxy-3-O-(D-2-propanoyl-L-alanyl-D-isoglutaminemethyl ester)-1-thio-β-D-glucopyranose] | 22.1 ± 0.9 | 20.9 ± 0.7 |  | 
CCCCCCCCCCCCCCCC(=O)S[C@@H]1O[C@H](CO)[C@@H](O)[C@H](O[C@H](C)C(=O)N[C@@H](C)C(=O)N[C@H](CCC(=O)O)C(N)=O)[C@H]1NC(C)=O [Compound 17, 2-Acetamido-2-deoxy-1-S-hexadecanoyl-3-O-(D-2-propanoyl-L-alanyl-D-isoglutamine)-1-thio-β-D-glucopyranose] | 21.8 ± 0.8 | 23.1 ± 1.1 |  | % Survival 7 days after Infection [2, 4]: 60%
CCCCCCCCCCCCCCCC(=O)SC1OC2COC(C)(C)OC2C(OC(C)C(=O)NC(C)C(=O)NC(CCC(=O)O)C(N)=O)C1NC(C)=O [Compound 16, 2-Acetamido-2-deoxy-1-S-hexadecanoyl-4,6-O-isopropylidene-3-O-(D-2-propanoyl-L-alanyl-D-isoglutamine)-1-thio-β-D-glucopyranose] | 11.3 ± 0.8 | 5.6 ± 1.4 |  | 
CCCC(=O)S[C@@H]1O[C@H](CO)[C@@H](O)[C@H](O[C@H](C)C(=O)N[C@@H](C)C(=O)N[C@H](CCC(=O)OC)C(N)=O)[C@H]1NC(C)=O [Compound 21, 2-Acetamido-2-deoxy-1-S-n-butanoyl-3-O-(D-2-propanoyl-L-alanyl-D-isoglutaminemethyl ester)-1-thio-β-D-glucopyranose] |  |  | 50 | 
CCCCSC1OC(CO)C(O)C(OC(C)C(=O)NC(C)C(=O)NC(CCC(=O)O)C(N)=O)C1NC(C)=O [Compound 10, 1-S-n-Butyl 2-acetamido-2-deoxy-3-O-(D-2-propanoyl-L-alanyl-D-isoglutamine)-1-thio-β-D-glucopyranoside] | 17.4 ± 1.7 | 13.6 ± 1.8 |  | 
CCCCCCCCCCCCCCCCSC1OC(CO)C(O)C(OC(C)C(=O)NC(C)C(=O)NC(CCC(=O)OC)C(N)=O)C1NC(C)=O [Compound 9, 1-S-Hexadecanyl 2-acetamido-2-deoxy-3-O-(D-2-propanoyl-L-alanyl-D-isoglutaminemethyl ester)-1-thio-β-D-glucopyranoside] | 13.5 ± 0.8 | 12.4 ± 0.7 |  | 
CCCCCCCCCCCC(=O)S[C@@H]1O[C@H](CO)[C@@H](O)[C@H](O[C@H](C)C(=O)N[C@@H](C)C(=O)N[C@H](CCC(=O)O)C(N)=O)[C@H]1NC(C)=O [Compound 22, 2-Acetamido-2-deoxy-1-S-dodecanoyl-3-O-(D-2-propanoyl-L-alanyl-D-isoglutamine)-1-thio-β-D-glucopyranose] |  |  | 55 | 
CCCCCCCCCCCCCCCCCCCCCCCCCCCCCC(=O)S[C@@H]1O[C@H](CO)[C@@H](O)[C@H](O[C@H](C)C(=O)N[C@@H](C)C(=O)N[C@H](CCC(=O)OC)C(N)=O)[C@H]1NC(C)=O [Compound 20, 2-Acetamido-2-deoxy-1-S-triacontanoyl-3-O-(D-2-propanoyl-L-alanyl-D-isoglutaminemethyl ester)-1-thio-β-D-glucopyranose] |  |  |  | Suppression of Meth-A growth (number of tumor-free mice/number of mice tested) [3]: 5/9
CCCCCCCCCCCCCCCCCC(=O)S[C@@H]1O[C@H](CO)[C@@H](O)[C@H](O[C@H](C)C(=O)N[C@@H](C)C(=O)N[C@H](CCC(=O)OC)C(N)=O)[C@H]1NC(C)=O [Compound 19, 2-Acetamido-2-deoxy-1-S-octadecanoyl-3-O-(D-2-propanoyl-L-alanyl-D-isoglutaminemethyl ester)-1-thio-β-D-glucopyranose] |  |  | 70 | 
